Measured values reported in ChEMBL document CHEMBL4483862, “Open-source discovery of chemical leads for next-generation chemoprotective antimalarials” (2018).
pIC50: −log10 of the molar value.

Tested on: Plasmodium berghei
Test: Luciferase/luciferin-expressing antifolate-resistant parasites were used to infect a culture of HepG2 cells that were pre-incubated with compounds. Infected hepatocytes emit light due to the luciferase reaction. Assay results are presented as the percent inhibition of light emission compared to control. […]
Type: functional
Conditions: sporozoite; for IC90: read-out: LUCIFERASE INFECTION ASSAY - IC90

Row | SMILES | IC90 [µM] | also measured
1 | Cc1cc2ccccn2c1C(=O)c1ccccc1Br | > 10 | pIC50 (HEPG2TOX_HILL_SLOPE 6.22, HEPG2TOX_R_SQUARED 0.365, PBLUC_HILL_SLOPE 4.01, PBLUC_R_SQUARED 0.105, read-out: LUCIFERASE INFECTION ASSAY - IC50): 5.01
2 | COc1ccccc1N(CC(=O)NCC12CC3CC(CC(C3)C1)C2)S(=O)(=O)c1ccccc1 | > 10 | pIC50 (HEPG2TOX_HILL_SLOPE 6.27, HEPG2TOX_R_SQUARED 0.869, read-out: LUCIFERASE INFECTION ASSAY - IC50): < 5.00
3 | COc1ccc(NC(=O)NCC(=O)c2cc(C)n(-c3ccc(C)c(C)c3)c2C)cc1 | 3.99 | pIC50 (HEPG2TOX_HILL_SLOPE 6.34, HEPG2TOX_R_SQUARED 0.826, PBLUC_HILL_SLOPE 22.8, PBLUC_R_SQUARED 0.569, read-out: LUCIFERASE INFECTION ASSAY - IC50): 5.44
4 | CC(=O)c1ccc(-c2ccc(C(=O)N3CCC(c4nc5ccccc5o4)CC3)o2)cc1 | > 10 | pIC50 (HEPG2TOX_HILL_SLOPE 6.21, HEPG2TOX_R_SQUARED 0.873, read-out: LUCIFERASE INFECTION ASSAY - IC50): < 5.00
5 | C=CCSc1nnc(-c2ccc(C(C)(C)C)cc2)n1-c1ccc(C(C)C)cc1 | > 8.43 | pIC50 (HEPG2TOX_HILL_SLOPE 6.39, HEPG2TOX_R_SQUARED 0.425, PBLUC_HILL_SLOPE 3, PBLUC_R_SQUARED 0.616, read-out: LUCIFERASE INFECTION ASSAY - IC50): < 5.07
6 | Cc1ccc(-c2noc(CCC(=O)N3CCN(C/C=C/c4ccccc4)CC3)n2)cc1 | > 10 | pIC50 (HEPG2TOX_HILL_SLOPE 6.22, HEPG2TOX_R_SQUARED 0.551, PBLUC_HILL_SLOPE 3.17, PBLUC_R_SQUARED 0.265, read-out: LUCIFERASE INFECTION ASSAY - IC50): 5.29
7 | CCOc1ccccc1N(C(=O)C1CC=CCC1)c1nc2ccccc2s1 (configuration not stated) | > 10 | pIC50 (HEPG2TOX_HILL_SLOPE 6.4, HEPG2TOX_R_SQUARED 0.335, PBLUC_HILL_SLOPE 2.71, PBLUC_R_SQUARED 0.0983, read-out: LUCIFERASE INFECTION ASSAY - IC50): 5.11
8 | COc1cccc(-c2cnn3ccc(Nc4cc(OC)c(OC)c(OC)c4)nc23)c1 | 3.34 | pIC50 (HEPG2TOX_HILL_SLOPE 6.32, HEPG2TOX_R_SQUARED 0.972, PBLUC_HILL_SLOPE 10.3, PBLUC_R_SQUARED 0.636, read-out: LUCIFERASE INFECTION ASSAY - IC50): 5.57
9 | O=C(Nc1ccnn1Cc1ccc(Cl)cc1Cl)c1cccc(NC(=O)c2cccs2)c1 | > 10 | pIC50 (HEPG2TOX_HILL_SLOPE 6.41, HEPG2TOX_R_SQUARED 0.384, PBLUC_HILL_SLOPE 10.4, PBLUC_R_SQUARED 0.292, read-out: LUCIFERASE INFECTION ASSAY - IC50): 5.06
10 | Cc1cc(SCC(=O)NC(C)C2CC3CCC2C3)n2c(nc3ccccc32)c1C#N (configuration not stated) | 3.54 | pIC50 (HEPG2TOX_HILL_SLOPE 6.37, HEPG2TOX_R_SQUARED 0.94, PBLUC_HILL_SLOPE 33.9, PBLUC_R_SQUARED 0.41, read-out: LUCIFERASE INFECTION ASSAY - IC50): 5.48
11 | COc1ccc(N2CCN(CCCNc3ncnc4cc(Cl)ccc34)CC2)cc1 | 3.54 | pIC50 (HEPG2TOX_HILL_SLOPE 6.44, HEPG2TOX_R_SQUARED 0.109, PBLUC_HILL_SLOPE 114, 20.9, PBLUC_R_SQUARED 0.138, 0.588, read-out: LUCIFERASE INFECTION ASSAY - IC50): 5.48
12 | CC(C)C(CNc1ncnc2cc(Cl)ccc12)N1CCN(C)CC1 (configuration not stated) | > 10 | pIC50 (HEPG2TOX_HILL_SLOPE 6.21, HEPG2TOX_R_SQUARED 0.178, read-out: LUCIFERASE INFECTION ASSAY - IC50): < 5.00
13 | COc1ccc(Cl)c(Nc2nc(-c3c(-c4ccc(Cl)cc4Cl)noc3C)cs2)c1 | > 7.07 | pIC50 (HEPG2TOX_HILL_SLOPE 6.31, HEPG2TOX_R_SQUARED 0.301, PBLUC_HILL_SLOPE 9.51, PBLUC_R_SQUARED 0.295, read-out: LUCIFERASE INFECTION ASSAY - IC50): 5.20
14 | Cc1ccc(-c2nnc3n2CCCCC3)cc1NC(=O)c1ccc([N+](=O)[O-])o1 | > 10 | pIC50 (HEPG2TOX_HILL_SLOPE 6.11, HEPG2TOX_R_SQUARED 0.316, PBLUC_HILL_SLOPE 1.35, PBLUC_R_SQUARED 0.486, read-out: LUCIFERASE INFECTION ASSAY - IC50): 5.21
15 | COc1ccc(-c2cnn3ccc(Nc4ccc(OC)nc4)nc23)c(OC)c1 | 3.63 | pIC50 (HEPG2TOX_HILL_SLOPE 6.09, HEPG2TOX_R_SQUARED 0.857, PBLUC_HILL_SLOPE 12.3, PBLUC_R_SQUARED 0.558, read-out: LUCIFERASE INFECTION ASSAY - IC50): 5.52
16 | Cc1ccc(S(=O)(=O)N2CCN(CC(=O)N3N=C4/C(=C/c5cccs5)CCCC4C3c3cccs3)CC2)cc1 (configuration not stated) | 4.41 | pIC50 (HEPG2TOX_HILL_SLOPE 6.4, HEPG2TOX_R_SQUARED 0.688, PBLUC_HILL_SLOPE 11.3, PBLUC_R_SQUARED 0.553, read-out: LUCIFERASE INFECTION ASSAY - IC50): 5.44

Row | SMILES | IC90 [µM] | also measured
17 | O=C(Nc1cccc(Cl)c1)Nc1ccccc1N1CCCC1 | > 10.4 | pIC50 (HEPG2TOX_HILL_SLOPE 6.22, HEPG2TOX_R_SQUARED 0.342, PBLUC_HILL_SLOPE 2.56, PBLUC_R_SQUARED 0.455, read-out: LUCIFERASE INFECTION ASSAY - IC50): 5.16
18 | O=C1N/C(=N\C2CCCC2)S/C1=C\c1ccc2c(c1)OCCO2 | 7.77 | pIC50 (HEPG2TOX_HILL_SLOPE 6.25, HEPG2TOX_R_SQUARED 0.845, PBLUC_HILL_SLOPE 2.64, PBLUC_R_SQUARED 0.759, read-out: LUCIFERASE INFECTION ASSAY - IC50): 5.47
19 | O=C1N(Cc2ccccn2)C(=O)C2(CCN(Cc3cc4ccccc4o3)CC2)N1CCc1ccccc1 | > 6.67 | pIC50 (HEPG2TOX_HILL_SLOPE 6.35, HEPG2TOX_R_SQUARED 0.629, PBLUC_HILL_SLOPE 2.7, PBLUC_R_SQUARED 0.846, read-out: LUCIFERASE INFECTION ASSAY - IC50): 5.36
20 | O=c1[nH][nH]c(-c2ccccc2)c1C=NCc1cccc(C(F)(F)F)c1 | > 9.56 | pIC50 (HEPG2TOX_HILL_SLOPE 6.09, HEPG2TOX_R_SQUARED 0.916, PBLUC_HILL_SLOPE 3.54, PBLUC_R_SQUARED 0.303, read-out: LUCIFERASE INFECTION ASSAY - IC50): 5.12
21 | O=C(NNC(=S)NC(=O)c1cn(-c2ccccc2)nc1-c1ccc(Br)cc1)c1ccncc1 | 3.48 | pIC50 (HEPG2TOX_HILL_SLOPE 6.43, HEPG2TOX_R_SQUARED 0.426, PBLUC_HILL_SLOPE 13.5, PBLUC_R_SQUARED 0.624, read-out: LUCIFERASE INFECTION ASSAY - IC50): 5.53
22 | CCn1c(NC(=O)Cc2csc(-n3c(C)ccc3C)n2)nc2ccccc21 | > 10 | pIC50 (HEPG2TOX_HILL_SLOPE 6.15, HEPG2TOX_R_SQUARED 0.156, PBLUC_HILL_SLOPE 14.1, PBLUC_R_SQUARED 0.172, read-out: LUCIFERASE INFECTION ASSAY - IC50): 5.05
23 | Fc1ccc(Nc2nccc3nc(-c4ccccc4Cl)[nH]c23)cc1Cl | > 10 | pIC50 (HEPG2TOX_HILL_SLOPE 6.23, HEPG2TOX_R_SQUARED 0.841, PBLUC_HILL_SLOPE 1.89, PBLUC_R_SQUARED 0.243, read-out: LUCIFERASE INFECTION ASSAY - IC50): 5.25
24 | COc1cc(/C=C(/C(=O)OCC(=O)NC2CCCCC2C)c2ccc(-c3ccccc3)cc2)cc(OC)c1OC (configuration not stated) | 3.8 | pIC50 (HEPG2TOX_HILL_SLOPE 6.06, HEPG2TOX_R_SQUARED 0.736, PBLUC_HILL_SLOPE 16.1, PBLUC_R_SQUARED 0.664, read-out: LUCIFERASE INFECTION ASSAY - IC50): 5.48
25 | CCN1CCN(c2nc(-c3ccccc3)nc3sc(-c4ccccc4)cc23)CC1 | > 10 | pIC50 (HEPG2TOX_HILL_SLOPE 6.07, HEPG2TOX_R_SQUARED 0.861, PBLUC_HILL_SLOPE 3.24, PBLUC_R_SQUARED 0.199, read-out: LUCIFERASE INFECTION ASSAY - IC50): 5.16
26 | Cc1nnc(Sc2ccc([N+](=O)[O-])c(Sc3nnc(C)s3)n2)s1 | > 8.58 | pIC50 (HEPG2TOX_HILL_SLOPE 6.33, HEPG2TOX_R_SQUARED 0.72, PBLUC_HILL_SLOPE 8.1, PBLUC_R_SQUARED 0.222, read-out: LUCIFERASE INFECTION ASSAY - IC50): < 5.07
27 | CC(C)(C)c1csc(Cc2ccc(-c3csnn3)cc2)n1 | 8.68 | pIC50 (HEPG2TOX_HILL_SLOPE 6.43, HEPG2TOX_R_SQUARED 0.485, PBLUC_HILL_SLOPE 2.92, PBLUC_R_SQUARED 0.738, read-out: LUCIFERASE INFECTION ASSAY - IC50): 5.39
28 | NC(=NC(=S)Nc1cc(Cl)ccc1Cl)c1ccccc1 | > 10.2 | pIC50 (HEPG2TOX_HILL_SLOPE 6.22, HEPG2TOX_R_SQUARED 0.375, read-out: LUCIFERASE INFECTION ASSAY - IC50): < 4.99
29 | CCCc1cc(=O)n2nc(Cc3ccccc3)c(-c3ccccc3)c2[nH]1 | > 9.61 | pIC50 (HEPG2TOX_HILL_SLOPE 6.09, HEPG2TOX_R_SQUARED 0.391, read-out: LUCIFERASE INFECTION ASSAY - IC50): < 5.02
30 | CNC(=O)c1ccc(CN(Cc2ccco2)c2nc(C(F)(F)F)nc3ccccc23)cc1 | 3.56 | pIC50 (HEPG2TOX_HILL_SLOPE 6.45, HEPG2TOX_R_SQUARED 0.103, PBLUC_HILL_SLOPE 3.77, PBLUC_R_SQUARED 0.847, read-out: LUCIFERASE INFECTION ASSAY - IC50): 5.70
31 | COCc1cccc(-c2cc(-c3cc4ccccc4s3)cnc2N)c1 | > 9.53 | pIC50 (HEPG2TOX_HILL_SLOPE 6.43, HEPG2TOX_R_SQUARED 0.192, PBLUC_HILL_SLOPE 1.27, PBLUC_R_SQUARED 0.564, read-out: LUCIFERASE INFECTION ASSAY - IC50): 5.24
